# Where “and” joins values, the source holds several entries; their conditions need not be identical. Equal values may be shown once. Toxic doses and inconclusive results are not listed.
# Tested on: BDF1 mice, P388 leukemia ip, median survival T/C
# Experiment: NCI In Vivo Anticancer Drug Screen. Data for tumor model P388 Leukemia (intraperitoneal) in B6D2F1 (BDF1) mice
# Conditions: endpoint: median survival time, higher = longer survival
# Method in brief: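 Reported as T/C, where T is the survival measurement in dosed animals and C the same measurement in vehicle controls.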
# [1] = dose: 50.0 mg/kg/injection, schedule: Q01DX009 (ip), vehicle: saline
# [2] = dose: 50.0 mg/kg/injection, schedule: Q04DX003 (ip), vehicle: saline with Tween-80
# [3] = dose: 100.0 mg/kg/injection, schedule: Q04DX003 (ip), vehicle: saline with Tween-80
# [4] = dose: 200.0 mg/kg/injection, schedule: Q04DX003 (ip), vehicle: saline with Tween-80
# [5] = dose: 50.0 mg/kg/injection, schedule: Q01DX009 (ip), vehicle: saline with Tween-80
# [6] = dose: 100.0 mg/kg/injection, schedule: Q01DX009 (ip), vehicle: saline with Tween-80
# [7] = dose: 200.0 mg/kg/injection, schedule: Q01DX009 (ip), vehicle: saline with Tween-80
# [8] = dose: 100.0 mg/kg/injection, schedule: Q01DX001 (ip), vehicle: saline sonified
structure (smiles),measurement,setting,value
CCCCN1CCCC(O)C1 (configuration not stated),T/C,[1],100 % of control
same,T/C,[2],105 % of control
same,T/C,"dose: 100.0 mg/kg/injection, schedule: Q01DX009 (ip), vehicle: saline",100 % of control
same,T/C,[3],110 % of control
same,T/C,[4],100 % of control
CSc1ncnc2c1ncn2C1OC(CO)C(O)C1O (configuration not stated),T/C,"dose: 4.0 mg/kg/injection, schedule: Q01DX010 (ip), vehicle: saline",113 % of control
same,T/C,"dose: 8.0 mg/kg/injection, schedule: Q01DX010 (ip), vehicle: saline",122 % of control
same,T/C,"dose: 32.0 mg/kg/injection, schedule: Q01DX010 (ip), vehicle: saline",118 % of control
CCc1c2cc(OC)c(OC)cc2cc2c3cc(OC)c(OC)cc3cc[n+]12 (tested in a mixture with another compound),T/C,"dose: 50.0 mg/kg/injection, schedule: Q04DX003 (ip), vehicle: saline",150 % of control
same,T/C,"dose: 75.0 mg/kg/injection, schedule: Q04DX003 (ip), vehicle: saline",150 % of control
same,T/C,"dose: 100.0 mg/kg/injection, schedule: Q04DX003 (ip), vehicle: saline",166 % of control
same,T/C,"dose: 150.0 mg/kg/injection, schedule: Q04DX003 (ip), vehicle: saline",158 % of control
O=C(c1ccccc1)C(SC(C(=O)c1ccccc1)c1ccccc1)c1ccccc1 (configuration not stated),T/C,[5],98 % of control
same,T/C,[6],97 % of control
same,T/C,[7],91 % of control
N#Cc1cccc(C[P+](c2ccccc2)(c2ccccc2)c2ccccc2)c1,T/C,"dose: 6.25 mg/kg/injection, schedule: Q01DX009 (ip), vehicle: Klucel (hydroxypropylcellulose) (HPC)",86 % of control
same,T/C,"dose: 12.5 mg/kg/injection, schedule: Q01DX009 (ip), vehicle: Klucel (hydroxypropylcellulose) (HPC)",95 % of control
same,T/C,"dose: 17.0 mg/kg/injection, schedule: Q04DX003 (ip), vehicle: Klucel (hydroxypropylcellulose) (HPC)",95 % of control and 104 % of control
same,T/C,"dose: 25.0 mg/kg/injection, schedule: Q01DX009 (ip), vehicle: Klucel (hydroxypropylcellulose) (HPC)",104 % of control
same,T/C,"dose: 35.0 mg/kg/injection, schedule: Q01DX009 (ip), vehicle: Klucel (hydroxypropylcellulose) (HPC)",86 % of control
same,T/C,"dose: 40.0 mg/kg/injection, schedule: Q04DX003 (ip), vehicle: Klucel (hydroxypropylcellulose) (HPC)",95 % of control and 100 % of control
same,T/C,"dose: 52.5 mg/kg/injection, schedule: Q04DX003 (ip), vehicle: Klucel (hydroxypropylcellulose) (HPC)",115 % of control
OB(O)C1=CC(c2ccccc2)(c2ccccc2)N=C1,T/C,"dose: 25.0 mg/kg/injection, schedule: Q01DX001 (ip), vehicle: saline sonified",100 % of control
same,T/C,"dose: 50.0 mg/kg/injection, schedule: Q01DX001 (ip), vehicle: saline sonified",100 % of control
same,T/C,[8],104 % of control
O=c1oc(/C=C/c2ccccc2)nc2cc(Cl)ccc12,T/C,[3],100 % of control
same,T/C,[4],109 % of control
same,T/C,"dose: 400.0 mg/kg/injection, schedule: Q04DX003 (ip), vehicle: saline with Tween-80",100 % of control
CC(C)=NNC(=O)c1ccccc1,T/C,"dose: 25.0 mg/kg/injection, schedule: Q01DX009 (ip), vehicle: saline",104 % of control
same,T/C,"dose: 25.0 mg/kg/injection, schedule: Q04DX003 (ip), vehicle: saline with Tween-80",95 % of control
same,T/C,[1],109 % of control
same,T/C,[2],95 % of control
same,T/C,[3],100 % of control and 113 % of control
Nc1cncc2ncc(-c3ccc(Cl)c(Cl)c3)nc12,T/C,[8],91 % of control
same,T/C,"dose: 200.0 mg/kg/injection, schedule: Q01DX001 (ip), vehicle: saline sonified",100 % of control
same,T/C,"dose: 400.0 mg/kg/injection, schedule: Q01DX001 (ip), vehicle: saline sonified",104 % of control
CC#CC#C/C=C1\OC2(CCCCO2)C(OC(C)=O)C1OC(C)=O (configuration not stated),T/C,"dose: 10.0 mg/kg/injection, schedule: Q01DX009 (ip), vehicle: Klucel (hydroxypropylcellulose) (HPC)",98 % of control
same,T/C,"dose: 20.0 mg/kg/injection, schedule: Q01DX009 (ip), vehicle: Klucel (hydroxypropylcellulose) (HPC)",98 % of control
same,T/C,"dose: 40.0 mg/kg/injection, schedule: Q01DX009 (ip), vehicle: Klucel (hydroxypropylcellulose) (HPC)",115 % of control
O=C1OC2=C(Cl)C=CC=CC2C12C1C=CC=CC12 (configuration not stated),T/C,[5],113 % of control
same,T/C,[6],110 % of control
same,T/C,[7],107 % of control
